Measurements as given in patent publication US20240216401A1, “COMBINATION THERAPY BY USING AKR1C3-ACTIVATED COMPOUND WITH IMMUNE CHECKPOINT INHIBITOR” (OBI Pharma, Inc., priority 2021, published 2024).
Where “and” joins values, the source holds several entries; their conditions need not be identical. Identical values can stand only once. Entries after “also recorded” stand apart in the source; their conditions may differ.

Experiments:
Type in all cases: in vivo, Mus musculus
[1] = tested on: HepG2 tumor; test: Example 1: tumor volume, tumor weight and TGI in HepG2 tumor bearing humanized mice
Experimental: (§1) Each group contains five mice. The human hepatocellular carcinoma cell line HepG2 were subcutaneously inoculated to the advanced immune deficiency mice. Total of 30 mice were included in this study.
2.2. […] The subcutaneous injection volume was […].
(§2) 3.1. […] The injection was performed using insulin syringe with the dosage of 10 mg/kg (Dosage of injection was changed to 20 mg/kg from Day 15) and injection volume of 10 mL/kg. […] The reference item was administered for G1. The procedure followed the standards of sample administration.
(§3) 3.2. The test item anti-hPD-L1 antibody or reference items were intraperitoneally injected to the mice on Day 8 after the inoculation of tumor cells. The injection was performed using insulin syringe with the dosage of 10 mg/kg (Dosage of injection was changed to 20 mg/kg from Day 15) and injection volume of 10 mL/kg. The test item anti-hPD-L1 was continuously administered on Day 8, 11, 15, 18, 22, 25, 29 and 32 for G4 and G6. The reference item was administered for G1. The procedure followed the standards of sample administration.
(§4) 3.3. […] The injection was performed using insulin syringe with the dosage of 1 mg/kg and injection volume of 5 mL/kg. […] The reference item was administered for G1. The procedure followed the standards of sample administration.
The measurement was performed from the next day of the inoculation. The tumor volumes were measured and recorded twice a week (Mon., Thur.). Tumor volume was calculated by ellipsoid equation according to the records ((major axis×minor axis×minor axis)×(π/6)).
Tumor volumes were used to calculate tumor growth inhibition (TGI) rates according to the following formula: TGI (%)=[1−(Ti−T0)/(Ci−C0)]×100, where Ti and Ci indicate the mean tumor volume in the treatment groups and vehicle group at the end of the experiment (Day 35). Whereas, T0 and C0 indicate the mean tumor volumes in the treatment group and vehicle group at the beginning of the experiment (Day 1).
(§5) Mice were sacrificed by CO2 euthanasia at the end of the study duration, and the connective tissue around tumor was resected. The tumor samples were then removed and weighed. The half tissue was fixed in 10% formaldehyde and then embedded in paraffin; the other half was prepared for the isolation of tumor-infiltrating lymphocytes (TILs).

[2] = Example 1: body weight and mortality of HepG2 tumor bearing humanized mice; conditions: OBI-3424 1 mg/kg IV, antibody 10 mg/kg IP (20 from Day 15)
Experimental: as §1, §2, §3, §4
The measurement was performed from the next day of the inoculation. The animal body weights were measured and recorded twice per week.

[3] = tested on: CD8^+ cytotoxic T cells (CTL) in tumor-infiltrating lymphocytes; test: Example 1: flow cytometry, percentage of CTL cells in TILs
Experimental: as §5
(§6) The half of mouse tumors were dissected into smaller fragments using scalpels and then digested with a cocktail of collagenase, DNase I, and Hyaluronidase (Collagenase #C5138, DNase I #D5025, Hyaluronidase #H6254, SigmaAldrich) for at least 2 hours.
(§7) Cells were stained with the fluorescently conjugated surface antibodies and incubated for 30 minutes at 4° C., and then resuspended in staining buffer for flow cytometric analysis. Flow cytometry was done using a Navios EX Flow Cytometer (Beckman Coulter). Data were analyzed using the Kaluza Analysis Software (Beckman Coulter).

[4] = tested on: CD4^+ T helper cells in tumor-infiltrating lymphocytes; test: Example 1: flow cytometry, percentage of TH cells in TILs; conditions: individual mice
Experimental: as §5, §6, §7

[5] = tested on: NK cells in tumor-infiltrating lymphocytes; test: Example 1: flow cytometry, percentage of NK cells in TILs; conditions: individual mice
Experimental: as §5, §6, §7

[6] = tested on: PD-L1^+ cells in tumor-infiltrating lymphocytes; test: Example 1: flow cytometry, percentage of PD-L1 cells in TILs; conditions: individual animal
Experimental: as §5, §6, §7

[7] = TILs, flow cytometer, individual mice
[8] = TILs, gate CD45^+CD8^+ cells, individual mice

C[C@H](OP(=O)(N1CC1)N1CC1)c1ccc([N+](=O)[O-])c(Oc2cccc(C(=O)N(C)C)c2)c1 [OBI-3424, (S)-1-(3-(3-N,N-dimethylaminocarbonyl)phenoxyl-4-mtrophenyl)-1-ethyl-N,N′-bis(ethylene)phosphoramidate]
Tumor volume, Mean ([1]; D 1, group mean, OBI-3424 1 mg/kg IV, antibody 10 mg/kg IP (20 from Day 15)): 397.08 mm^3
Tumor volume, Mean ([1]; D 4, group mean, OBI-3424 1 mg/kg IV, antibody 10 mg/kg IP (20 from Day 15)): 295.20 mm^3
Tumor volume, Mean ([1]; D 7, group mean, OBI-3424 1 mg/kg IV, antibody 10 mg/kg IP (20 from Day 15)): 298.28 mm^3
Tumor volume, Mean ([1]; D 11, group mean, OBI-3424 1 mg/kg IV, antibody 10 mg/kg IP (20 from Day 15)): 344.17 mm^3
Tumor volume, Mean ([1]; D 14, group mean, OBI-3424 1 mg/kg IV, antibody 10 mg/kg IP (20 from Day 15)): 385.09 mm^3
Tumor volume, Mean ([1]; D 18, group mean, OBI-3424 1 mg/kg IV, antibody 10 mg/kg IP (20 from Day 15)): 535.36 mm^3
Tumor volume, Mean ([1]; D 21, group mean, OBI-3424 1 mg/kg IV, antibody 10 mg/kg IP (20 from Day 15)): 627.45 mm^3
Tumor volume, Mean ([1]; D 25, group mean, OBI-3424 1 mg/kg IV, antibody 10 mg/kg IP (20 from Day 15)): 773.19 mm^3
Tumor volume, Mean ([1]; D 28, group mean, OBI-3424 1 mg/kg IV, antibody 10 mg/kg IP (20 from Day 15)): 718.91 mm^3
Tumor volume, Mean ([1]; D 32, group mean, OBI-3424 1 mg/kg IV, antibody 10 mg/kg IP (20 from Day 15)): 643.09 mm^3
Tumor volume, Mean ([1]; D 35, group mean (mean±SEM), OBI-3424 1 mg/kg IV, antibody 10 mg/kg IP (20 from Day 15)): 590.62±164.32 mm^3 and 590.62 mm^3
Tumor weight, Mean ([1]; D 35, group mean, OBI-3424 1 mg/kg IV, antibody 10 mg/kg IP (20 from Day 15)): 274.44 mg
mean tumor volume compared with vehicle (in words) ([1]; Day 35, vs vehicle (G1), Student's t-test): Significantly reduced; also recorded: significantly suppressed
effect on tumor growth (conclusion in words) ([1]; HepG2 humanized mouse model): efficiently anti-tumor effect
TGI ([1]; from mean tumor volumes Day 35 vs Day 1, relative to vehicle, OBI-3424 1 mg/kg IV, antibody 10 mg/kg IP (20 from Day 15)): 83.13%
tumor weight compared with vehicle (in words) ([1]; sacrifice Day 36, vs vehicle (G1)): significantly suppressed
Body Weight, Mean ([2]; Day 18, group mean): 24.23 g
Body Weight, Mean ([2]; Day 21, group mean): 24.04 g
CD8^+ cytotoxic T cells (CTL) population in tumors compared with vehicle (in words) ([3]; Example 1, TILs at sacrifice, flow cytometry): significantly elevated
CD25^+ CTL cells (CD45^+CD8^+ CD25^+) Total % [3, 7]: 0.27% and 0.30% and 0.77% and 0.52% and 0.28%
CTL cells (CD45^+CD8^+) Total % [3, 7]: 20.93% and 12.12% and 21.14% and 45.53% and 36.08%
PD-1^+ CTL cells (CD45^+CD8^+ PD-1^+) Total % [3, 7]: 21.41% and 12.30% and 20.63% and 41.26% and 28.90%
CTL cells (CD45^+CD8^+) CD45^+ Gated % ([3]; TILs, gate CD45^+ cells, individual mice): 49.08% and 66.81% and 72.14% and 74.09% and 57.70%
CD25^+ CTL cells (CD45^+CD8^+ CD25^+) CTL Gated % [3, 8]: 1.27% and 2.48% and 3.64% and 1.13% and 0.78%
PD-1^+ CTL cells (CD45^+CD8^+ PD-1^+) CTL Gated % [3, 8]: 92.13% and 91.25% and 99.25% and 91.79% and 85.06%
CD25^+ CTL cells (CD45^+CD8^+ CD25^+) Cell count ([3]; TILs, individual mice): 0.12 ×10^5 and 0.22 ×10^5 and 0.63 ×10^5 and 0.13 ×10^5 and 0.11 ×10^5
CTL cells (CD45^+CD8^+) Cell count ([3]; TILs, individual mice): 9.13 ×10^5 and 8.93 ×10^5 and 17.29 ×10^5 and 11.11 ×10^5 and 14.65 ×10^5
PD-1^+ CTL cells (CD45^+CD8^+ PD-1^+) Cell count ([3]; TILs, individual mice): 9.33 ×10^5 and 9.07 ×10^5 and 16.88 ×10^5 and 10.07 ×10^5 and 11.73 ×10^5
CD25^+ TH cells (CD45^+CD4^+ CD25^+) Total % ([4]; flow cytometer): 1.06% and 0.68% and 0.82% and 0.52% and 0.53%
PD-1^+ TH cells (CD45^+CD4^+ PD-1^+) Total % ([4]; flow cytometer): 19.45% and 9.29% and 13.77% and 15.00% and 16.75%
TH cells (CD45^+CD4^+) Total % ([4]; flow cytometer): 18.53% and 9.14% and 14.30% and 14.34% and 16.81%
TH cells (CD45^+CD4^+) CD45^+ Gated % ([4]; gate CD45^+ cells): 43.45% and 50.36% and 48.78% and 23.33% and 26.88%
CD25^+ TH cells (CD45^+CD4^+CD25^+) TH Gated % ([4]; gate CD45^+CD4^+ cells): 5.70% and 7.39% and 5.74% and 3.63% and 3.15%
PD-1^+ TH cells (CD45^+CD4^+ PD-1^+) TH Gated % ([4]; gate CD45^+CD4^+ cells): 99.46% and 98.15% and 99.75% and 97.06% and 97.78%
CD25^+ TH cells (CD45^+CD4^+ CD25^+) Cell count [4]: 0.46 ×10^5 and 0.50 ×10^5 and 0.67 ×10^5 and 0.13 ×10^5 and 0.22 ×10^5
PD-1^+ TH cells (CD45^+CD4^+ PD-1^+) Cell count [4]: 8.48 ×10^5 and 6.85 ×10^5 and 11.26 ×10^5 and 3.66 ×10^5 and 6.80 ×10^5
TH cells (CD45^+CD4^+) Cell count [4]: 8.08 ×10^5 and 6.74 ×10^5 and 11.70 ×10^5 and 3.50 ×10^5 and 6.82 ×10^5
CD16^+ NK cells (CD45^+CD56^+ CD16^+) Total % ([5]; flow cytometer): 0.39% and 0.21% (2×) and 0.24% and 0.17%
NK cells (CD45^+CD56^+) Total % ([5]; flow cytometer): 2.47% and 1.62% and 1.15% and 2.73% and 1.39%
PD-1^+ NK cells (CD45^+CD56^+PD-1^+) Total % ([5]; flow cytometer): 3.26% and 1.51% and 1.63% and 2.76% and 2.38%
NK cells (CD45^+CD56^+) CD45^+ Gated % ([5]; gate CD45^+ cells): 6.06% and 9.96% and 4.16% and 5.20% and 2.33%
CD16^+ NK cells (CD45^+CD56^+ CD16^+) NK Gated % ([5]; gate CD45^+CD56^+ cells): 15.62% and 12.65% and 20.43% and 7.71% and 11.87%
PD-1^+ NK cells (CD45^+CD56^+PD-1^+) NK Gated % ([5]; gate CD45^+CD56^+ cells): 88.81% and 88.82% and 97.60% and 90.05% and 83.33%
CD16^+ NK cells (CD45^+CD56^+ CD16^+) Cell count [5]: 0.17 ×10^5 and 0.15 ×10^5 and 0.20 ×10^5 and 0.05 ×10^5 and 0.07 ×10^5
NK cells (CD45^+CD56^+) Cell count [5]: 1.08 ×10^5 and 1.19 ×10^5 and 0.94 ×10^5 and 0.67 ×10^5 and 0.56 ×10^5
PD-1^+ NK cells (CD45^+CD56^+PD-1^+) Cell count [5]: 1.42 ×10^5 and 1.11 ×10^5 and 1.33 ×10^5 and 0.67 ×10^5 and 0.97 ×10^5
CD45^+ cells Cell count (×10^6) [6]: 1.86 ×10^6 and 1.34 ×10^6 and 2.40 ×10^6 and 1.50 ×10^6 and 2.54 ×10^6
CD45^+ cells Gated % [6]: 58.88% and 28.16% and 40.69% and 79.75% and 79.11%
CD45^+ cells Total % [6]: 42.64% and 18.14% and 29.31% and 61.46% and 62.53%
Total PD-L1^+ cells (PD-L1^+) Cell count (×10^5) [6]: 2.17 ×10^5 and 14.22 ×10^5 and 4.16 ×10^5 and 0.26 ×10^5 and 0.25 ×10^5
Total PD-L1^+ cells (PD-L1^+), Total % [6]: 4.97% and 19.30% and 5.09% and 1.08% and 0.62%
Total PD-L1^+ cells (PD-L1^+), Total cells Gated % [6]: 5.67% and 24.15% and 6.02% and 1.15% and 0.65%
Total cells Cell count (×10^6) [6]: 3.82 ×10^6 and 5.89 ×10^6 and 6.92 ×10^6 and 2.30 ×10^6 and 3.83 ×10^6
Total cells Gated % [6]: 87.63% and 79.89% and 84.57% and 94.06% and 94.44%
Total cells Total % [6]: 87.63% and 79.89% and 84.57% and 94.06% and 94.44%
